From publication PMC6155296, “Screening of Peruvian Medicinal Plants for Tyrosinase Inhibitory Properties: Identification of Tyrosinase Inhibitors in Hypericum laricifolium Juss” (Molecules : A Journal of Synthetic Chemistry and Natural …, 2017)
Like-named read-outs stand apart in the source and are kept apart here.

What was measured:
[1] = target: T1, Mushroom tyrosinase (Agaricus bisporus, UniProt C7FF04); test: Tyrosinase assay (spectrophotometry, L-tyrosine substrate); format: biochemical
Procedure: Tyrosinase activity was determined by spectrophotometry, with minor modifications. First, 80 μL of 0.1 M potassium phosphate buffer (pH 6.6), 20 μL of sample dissolved in dimethyl sulfoxide at the concentrations needed (final concentrations 100–500 μg/mL), and 50 μL of L-tyrosine buffer (1.5 mM) solutions were mixed. Then, 50 μL of mushroom tyrosinase solution (200 unit/mL in phosphate buffer) was added to each mixture, which was then incubated at 25 °C for 15 min.
The results were expressed as mean ± standard deviation (SD), and were repeated three to five times. The inhibitory concentration (IC50) was calculated by log-Probit analysis.

[2] = target: T1, Mushroom tyrosinase; test: as above; format: biochemical; remark: listed apart in the source
[3] = tested on: cyclooxygenase-1 (COX-1); set-up: method as in PMID 14646327; details: in vitro; cited from earlier work

T1 sequence (C7FF04 2-392): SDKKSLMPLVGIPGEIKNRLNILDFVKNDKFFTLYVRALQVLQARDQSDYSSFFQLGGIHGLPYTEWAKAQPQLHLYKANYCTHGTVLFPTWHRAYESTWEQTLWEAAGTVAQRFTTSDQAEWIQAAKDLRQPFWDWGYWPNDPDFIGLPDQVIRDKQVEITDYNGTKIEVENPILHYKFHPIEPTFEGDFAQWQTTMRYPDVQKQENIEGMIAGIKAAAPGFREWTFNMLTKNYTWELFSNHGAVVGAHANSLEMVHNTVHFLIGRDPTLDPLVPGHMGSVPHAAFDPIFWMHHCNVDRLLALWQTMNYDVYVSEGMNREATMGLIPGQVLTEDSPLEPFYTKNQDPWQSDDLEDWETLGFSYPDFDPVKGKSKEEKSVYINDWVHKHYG
T1 sequence (G1K3P4 1-150 partner): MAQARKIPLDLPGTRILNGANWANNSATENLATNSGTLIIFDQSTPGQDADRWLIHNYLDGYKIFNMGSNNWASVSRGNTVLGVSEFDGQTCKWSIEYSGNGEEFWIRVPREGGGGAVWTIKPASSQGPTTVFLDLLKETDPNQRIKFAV

OC[C@H]1O[C@@H](Oc2ccc(O)cc2)[C@H](O)[C@@H](O)[C@@H]1O [Arbutin, arbutin, reference compound]
inhibition at 100 µg/mL [1]: 86 ± 1.6% | inhibition at 500 µg/mL [1]: 98.2 ± 0.9% | inhibition at 500 µg/mL ([1]; read-out: Inhibition % (500 μg/mL)): 92.3 ± 2.2% | inhibition at 10 µg/mL [2]: 13.7 ± 1.8% | inhibition at 50 µg/mL [2]: 63.8 ± 0.1%

O=C(O)/C=C/c1ccc(O)c(O)c1 [Caffeic acid (5), caffeic acid]
inhibition at 100 µg/mL ([1]; 100 μg/mL, Table 4, read-out: Inhibition (%)): < 1%

O=C(/C=C/c1ccc(O)c(O)c1)O[C@@H]1C[C@](O)(C(=O)O)C[C@@H](O)[C@H]1O [Chlorogenic acid (3), chlorogenic acid]
inhibition at 100 µg/mL [1]: < 1%

O=C(O)[C@H]1O[C@@H](Oc2c(-c3ccc(O)cc3)oc3cc(O)cc(O)c3c2=O)[C@H](O)[C@@H](O)[C@@H]1O [Kaempferol 3-O-glucuronide (6), kaempferol 3-O-glucuronide]
inhibition at 100 µg/mL [1]: < 1%

O=c1c(O)c(-c2ccc(O)cc2)oc2cc(O)cc(O)c12 [Kaempferol (8), kaempferol]
inhibition at 100 µg/mL [1]: 30 ± 1.97%

O=C(O)c1ccc(O)c(O)c1 [Protocatechuic acid (1), protocatechuic acid]
inhibition at 100 µg/mL [1]: < 1%

O=c1c(O)c(-c2ccc(O)c(O)c2)oc2cc(O)cc(O)c12 [Quercetin (7), quercetin]
Inhibition (%) ([1]; 100 μg/mL, Table 4): 99.7 ± 0.28% | Inhibition (%) ([1]; 100 μg/mL, Table 4, listed as quercetin): over 95% | inhibition of cyclooxygenase-1 (COX-1) [3]: 52% ± 2

COc1cc(C(=O)O)ccc1O [Vanilic acid (4), vanillic acid]
inhibition at 100 µg/mL [1]: < 1%

O=C(O)c1ccc(O)cc1 [p-Hydroxybenzoic acid (2), p-hydroxybenzoic acid]
inhibition at 100 µg/mL [1]: 8.3 ± 4.03%
